Results from patent US9695155B2, “Herbicidal substituted pyrimidinyloxy benzene compounds” (E. I. DU PONT DE NEMOURS AND COMPANY, priority 2013, dated 2017).

How the values were obtained:
barnyardgrass [1] = assay: Test A preemergence; type: in vivo, Echinochloa crus-galli; settings: for Barnyardgrass plant response rating: 500 g ai/ha, approx. 10 days
How it was run: (§1)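 Visual 0–100 rating (100 = complete control) taken about 10 d post-treatment relative to untreated checks. Preemergence: directed soil spray on sown loam/sand pots. Postemergence: seedlings 2–10 cm, 1–2 leaf. Non-phytotoxic solvent formulation with surfactant.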

large (Lg) crabgrass [2] = assay: Test A preemergence; type: in vivo, Digitaria sanguinalis; settings: for Crabgrass, Large plant response rating: 500 g ai/ha, approx. 10 days
How it was run: as §1

giant foxtail [3] = assay: Test A preemergence; type: in vivo, Setaria faberii; settings: for Plant response rating, Foxtail, Giant: 125 g ai/ha, 0 to 100 scale where 0 is no effect and 100 is complete control; for Foxtail, Giant plant response rating: 0 to 100 scale, 0 no effect, 100 complete control, approx. 10 days
How it was run: as §1

morningglory [4] = assay: Test A preemergence; type: in vivo, Ipomoea spp.; settings: for Plant response rating, Morningglory: 125 g ai/ha, 0 to 100 scale where 0 is no effect and 100 is complete control; for Morningglory plant response rating: 0 to 100 scale, 0 no effect, 100 complete control, approx. 10 days
How it was run: as §1

pigweed [5] = assay: Test A preemergence; type: in vivo, Amaranthus retroflexus; settings: for Plant response rating, Pigweed: 125 g ai/ha, 0 to 100 scale where 0 is no effect and 100 is complete control; for Pigweed plant response rating: 0 to 100 scale, 0 no effect, 100 complete control, approx. 10 days
How it was run: as §1

velvetleaf [6] = assay: Test A preemergence; type: in vivo, Abutilon theophrasti; settings: for Plant response rating, Velvetleaf: 125 g ai/ha, 0 to 100 scale where 0 is no effect and 100 is complete control; for Velvetleaf plant response rating: 0 to 100 scale, 0 no effect, 100 complete control, approx. 10 days
How it was run: as §1

wheat [7] = assay: Test A preemergence; type: in vivo, Triticum aestivum; settings: for Plant response rating, Wheat: 125 g ai/ha, 0 to 100 scale where 0 is no effect and 100 is complete control; for Wheat plant response rating: 0 to 100 scale, 0 no effect, 100 complete control, approx. 10 days
How it was run: as §1

corn [8] = assay: Test A preemergence; type: in vivo, Zea mays; settings: for Corn plant response rating: 500 g ai/ha, approx. 10 days
How it was run: as §1

barnyardgrass [9] = assay: Test A postemergence; type: in vivo, Echinochloa crus-galli
How it was run: as §1

large (Lg) crabgrass [10] = assay: Test A postemergence; type: in vivo, Digitaria sanguinalis
How it was run: as §1

giant foxtail [11] = assay: Test A postemergence; type: in vivo, Setaria faberii
How it was run: as §1

morningglory [12] = assay: Test A postemergence; type: in vivo, Ipomoea spp.
How it was run: as §1

pigweed [13] = assay: Test A postemergence; type: in vivo, Amaranthus retroflexus
How it was run: as §1

velvetleaf [14] = assay: Test A postemergence; type: in vivo, Abutilon theophrasti
How it was run: as §1

wheat [15] = assay: Test A postemergence; type: in vivo, Triticum aestivum
How it was run: as §1

corn [16] = assay: Test A postemergence; type: in vivo, Zea mays
How it was run: as §1

rice = assay: Test B flooded paddy test; type: in vivo, Oryza sativa; settings: Flood, 250 g ai/ha; 0 to 100 scale where 0 is no effect and 100 is complete control
How it was run: (§2)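 Seedlings are raised to two leaves, flooded to a depth of 3 cm and dosed by adding the compound to the floodwater. Water level is kept constant, and plants are scored visually versus controls 13–15 days later (0 = no effect, 100 = complete control).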

sedge, umbrella = assay: Test B flooded paddy test; type: in vivo, Cyperus difformis; settings: Flood, 250 g ai/ha; 0 to 100 scale where 0 is no effect and 100 is complete control
How it was run: as §2

Heteranthera limosa = assay: Test B flooded paddy test; type: in vivo; settings: Flood, 250 g ai/ha; 0 to 100 scale where 0 is no effect and 100 is complete control
How it was run: as §2

barnyardgrass [17] = assay: Test B flooded paddy test; type: in vivo, Echinochloa crus-galli; settings: Flood, 250 g ai/ha; 0 to 100 scale where 0 is no effect and 100 is complete control
How it was run: as §2

[18] = 125 g ai/ha, 0 to 100 scale where 0 is no effect and 100 is complete control
[19] = 0 to 100 scale, 0 no effect, 100 complete control
[20] = 500 g ai/ha, 0 to 100 scale, 0 no effect, 100 complete control
[21] = 1000 g ai/ha, 0 to 100 scale, 0 no effect, 100 complete control

Compound	Plant response rating, Barnyardgrass (barnyardgrass [1]; [18])	Barnyardgrass plant response rating (barnyardgrass [1]; [19])	Plant response rating, Crabgrass, Large (large (Lg) crabgrass [2]; [18])	Crabgrass, Large plant response rating (large (Lg) crabgrass [2]; [19])	Plant response rating, Foxtail, Giant (giant foxtail [3])	Foxtail, Giant plant response rating (giant foxtail [3]; 500 g ai/ha)	Plant response rating, Morningglory (morningglory [4])	Morningglory plant response rating (morningglory [4]; 500 g ai/ha)	Plant response rating, Pigweed (pigweed [5])	Pigweed plant response rating (pigweed [5]; 500 g ai/ha)	Plant response rating, Velvetleaf (velvetleaf [6])	Velvetleaf plant response rating (velvetleaf [6]; 500 g ai/ha)	Plant response rating, Wheat (wheat [7])	Wheat plant response rating (wheat [7]; 500 g ai/ha)	Plant response rating, Corn (corn [8]; [18])	Corn plant response rating (corn [8]; [19])	Plant response rating, Rice (rice)	Plant response rating, Sedge, Umbrella (sedge, umbrella)	Plant response rating, Ducksalad (Heteranthera limosa)	Plant response rating, Barnyardgrass (barnyardgrass [17])	other results
Clc1cnc(Oc2ccccc2-n2cnc(Br)n2)nc1 [Compound 46]	0	20	20	100	0	80	0	0	20	90	0	0	0	0	0	0	0	0	0	0	Plant response rating, Barnyardgrass (barnyardgrass [9]; [18]): 0; Plant response rating, Barnyardgrass (barnyardgrass [9]; [20]): 20; Plant response rating, Crabgrass, Large (large (Lg) crabgrass [10]; [18]): 0; Plant response rating, Crabgrass, Large (large (Lg) crabgrass [10]; [20]): 20; Plant response rating, Foxtail, Giant (giant foxtail [11]; [18]): 0; Plant response rating, Foxtail, Giant (giant foxtail [11]; [20]): 20; Plant response rating, Morningglory (morningglory [12]; [18]): 20; Plant response rating, Morningglory (morningglory [12]; [20]): 50; Plant response rating, Pigweed (pigweed [13]; [18]): 40; Plant response rating, Pigweed (pigweed [13]; [20]): 80; Plant response rating, Velvetleaf (velvetleaf [14]; [18]): 0; Plant response rating, Velvetleaf (velvetleaf [14]; [20]): 40; Plant response rating, Wheat (wheat [15]; [18]): 0; Plant response rating, Wheat (wheat [15]; [20]): 0; Plant response rating, Corn (corn [16]; [18]): 0; Plant response rating, Corn (corn [16]; [20]): 30
Fc1ccc(Oc2ncc(Cl)cn2)c(-n2cc(Br)cn2)c1 [Compound 53]																	0	0	75	0	Plant response rating, Barnyardgrass (barnyardgrass [1]; [21]): 100; Plant response rating, Crabgrass, Large (large (Lg) crabgrass [2]; [21]): 100; Foxtail, Giant plant response rating (giant foxtail [3]; 1000 g ai/ha): 100; Morningglory plant response rating (morningglory [4]; 1000 g ai/ha): 60; Pigweed plant response rating (pigweed [5]; 1000 g ai/ha): 100; Velvetleaf plant response rating (velvetleaf [6]; 1000 g ai/ha): 100; Wheat plant response rating (wheat [7]; 1000 g ai/ha): 0; Plant response rating, Corn (corn [8]; [21]): 10; Plant response rating, Barnyardgrass (barnyardgrass [9]; [21]): 90; Plant response rating, Crabgrass, Large (large (Lg) crabgrass [10]; [21]): 70; Plant response rating, Foxtail, Giant (giant foxtail [11]; [21]): 80; Plant response rating, Morningglory (morningglory [12]; [21]): 100; Plant response rating, Pigweed (pigweed [13]; [21]): 100; Plant response rating, Velvetleaf (velvetleaf [14]; [21]): 100; Plant response rating, Wheat (wheat [15]; [21]): 30; Plant response rating, Corn (corn [16]; [21]): 30
N#Cc1cccc(Oc2ncc(I)cn2)c1-n1cc(Br)cn1 [Compound 60]	0	70	40	100	20	90	0	0	30	100	0	40	0	0	0	0	0	0	0	0	Plant response rating, Barnyardgrass (barnyardgrass [9]; [18]): 20; Plant response rating, Barnyardgrass (barnyardgrass [9]; [20]): 50; Plant response rating, Crabgrass, Large (large (Lg) crabgrass [10]; [18]): 10; Plant response rating, Crabgrass, Large (large (Lg) crabgrass [10]; [20]): 70; Plant response rating, Foxtail, Giant (giant foxtail [11]; [18]): 20; Plant response rating, Foxtail, Giant (giant foxtail [11]; [20]): 80; Plant response rating, Morningglory (morningglory [12]; [18]): 10; Plant response rating, Morningglory (morningglory [12]; [20]): 50; Plant response rating, Pigweed (pigweed [13]; [18]): 50; Plant response rating, Pigweed (pigweed [13]; [20]): 100; Plant response rating, Velvetleaf (velvetleaf [14]; [18]): 50; Plant response rating, Velvetleaf (velvetleaf [14]; [20]): 100; Plant response rating, Wheat (wheat [15]; [18]): 0; Plant response rating, Wheat (wheat [15]; [20]): 10; Plant response rating, Corn (corn [16]; [18]): 0; Plant response rating, Corn (corn [16]; [20]): 30
O=Cc1cccc(Oc2ncc(Cl)cn2)c1-n1cc(Br)cn1 [Compound 61]	0	20	0	20	0	0	0	0	0	30	0	0	0	0	0	0	0	0	0	0	Plant response rating, Barnyardgrass (barnyardgrass [9]; [18]): 0; Plant response rating, Barnyardgrass (barnyardgrass [9]; [20]): 0; Plant response rating, Crabgrass, Large (large (Lg) crabgrass [10]; [18]): 0; Plant response rating, Crabgrass, Large (large (Lg) crabgrass [10]; [20]): 0; Plant response rating, Foxtail, Giant (giant foxtail [11]; [18]): 0; Plant response rating, Foxtail, Giant (giant foxtail [11]; [20]): 0; Plant response rating, Morningglory (morningglory [12]; [18]): 0; Plant response rating, Morningglory (morningglory [12]; [20]): 0; Plant response rating, Pigweed (pigweed [13]; [18]): 0; Plant response rating, Pigweed (pigweed [13]; [20]): 0; Plant response rating, Velvetleaf (velvetleaf [14]; [18]): 20; Plant response rating, Velvetleaf (velvetleaf [14]; [20]): 30; Plant response rating, Wheat (wheat [15]; [18]): 0; Plant response rating, Wheat (wheat [15]; [20]): 0; Plant response rating, Corn (corn [16]; [18]): 0; Plant response rating, Corn (corn [16]; [20]): 0
